According to US5364870A (priority 1993, dated 1994):

Key:
Assay in all cases: whole plant or invertebrate
Format in all cases: in vivo
[1] = tested on: wheat powdery mildew (Erysiphe graminis f. sp. tritici); conditions: Blumeria graminis, read-out: % Control WPM (percent disease control)
[2] = tested on: wheat stem rust (Puccinia graminis f. sp. tritici Race 15B-2); conditions: 336 h, read-out: % Control WSR (percent disease control)
[3] = tested on: rice blast (Piricularia oryzae); conditions: Pyricularia oryzae, 192 h, read-out: % Control RB (percent disease control)
[4] = tested on: rice sheath blight (Pellicularia filamentosa f. sp. sasiki); conditions: Oryza sativa, 120 h, read-out: % Control RSB (percent disease control)
[5] = tested on: cucumber downy mildew (Pseudoperonospora cubensis); conditions: 168 h, read-out: % Control CDM (percent disease control)

Row | Structure (SMILES) | pest or weed control at 200 ppm [1] | pest or weed control at 200 ppm [2] | pest or weed control at 200 ppm [3] | pest or weed control at 200 ppm [4] | pest or weed control at 200 ppm [5]
1 | [C-]#[N+]CC(CCCC)(Cn1cncn1)c1ccc(Cl)cc1 (stereo not shown) [Example 2, 2-(4-Chlorophenyl)-2-[(1,2,4-triazol-1-yl)methyl]hexylisocyanide] | 80% | 100% | 0% | 0% | 0%
2 | CCCCC(Cn1cncn1)(NC=O)c1ccc(Cl)cc1 (stereo not shown) [Example 8, N-[2-(4-Chlorophenyl)-1-(1,2,4-triazol-1-yl)-2-hexyl]formamide] | 100% | 60% | 0% |  | 0%
3 | CCCCC(Cn1cncn1)(NC(C)=O)c1ccc(Cl)cc1 (stereo not shown) [Example 10, N-[2-(4-Chlorophenyl)-1-(1,2,4-triazol-1-yl)-2-hexyl]acetamide] | 30% | 0% | 0% | 70% | 0%
4 | C=CC(CCCC)(Cn1cncn1)c1ccc(Cl)cc1 (stereo not shown) [Example 4, 3-(4-Chlorophenyl)-3-[(1,2,4-triazol-1-yl)methyl]-1-heptene] | 100% | 100% | 80% | 60% | 80%
5 | CCCCC(C=O)(Cn1cncn1)c1ccc(Cl)cc1 (stereo not shown) [Example 3, 2-(4-Chlorophenyl)-2-[(1,2,4-triazol-1-yl)methyl]hexanal] | 100% | 100% | 70% | 50% | 0%
6 | [C-]#[N+]C(CCCC)(Cn1cncn1)c1ccc(Cl)cc1 (stereo not shown) [Example 9, 2-(4-Chlorophenyl)-1-(1,2,4-triazol-1-yl)-2-hexylisocyanide] | 100% | 90% | 80% | 0% | 0%
7 | CCCCC(C=NO)(Cn1cncn1)c1ccc(Cl)cc1 (stereo not shown) [Example 6, 2-(4-Chlorophenyl)-(E,Z)-1-hydroxyamino-2-[(1,2,4-triazol-1-yl)methyl]hexanal] | 100% | 100% | 0% | 0% | 0%
8 | CCCCC(CNC=O)(Cn1cncn1)c1ccc(Cl)cc1 (stereo not shown) [Example 1, N-(2-(4-Chlorophenyl)-2-[(1,2,4-triazol-1-yl)methyl]hexyl)formamide] | 80% | 0% | 0% | 0% | 0%
9 | CCCCC(Cn1cncn1)(C(=O)N=[N+]=[N-])c1ccc(Cl)cc1 (stereo not shown) [Example 5, 2-(4-Chlorophenyl)-2-[(1,2,4-triazol-1-yl)methyl]hexanoylazide] | 100% | 70% |  | 0% | 20%
